Test system: senescent human skin fibroblasts collected from newborn skin
Assay: Experiment to confirm cell division (Hoechst assay)
Format: cell-based
Settings: for cell division results when the named compound replaced KU60019 (ATM kinase inhibitor) or ABT263 (Bcl-2 inhibitor) in the combinations: FIGS. 8 to 10; for cell rejuvenation effect of the five-component combination with the named compound as ATM kinase inhibitor or Bcl-2 inhibitor: FIGS. 24 and 25, ATM kinase inhibitor+ROCK inhibitor+Bcl-2 inhibitor+SIRT1 activator+AMPK activator treated together
Protocol: The human dermal fibroblasts used in the experiment were samples collected from newborn skin (PCS-201-010; ATCC), and the cells were cultured in a culture solution of DMEM [25 mM glucose, 10% FBS (S001-01; Welgene), 100 units/ml penicillin, 10 μg/ml streptomycin, and 25 ng/ml amphotericin B (LS203-01; Welgene)] under the conditions of 37° C. and 5% CO2.
After the 48th passage, ½ of the cells were cultured. When the population doubling time (DT) exceeded 14 days and the senescence-associated β-galactosidase (SA-β) ratio exceeded 95%, experiments were conducted by considering the cells as sufficiently aged.
The cell division ability of the senescent cells treated with the compounds in the above examples and comparative examples was investigated.
The cells to be used in the experiment were transplanted into a plate three days before the experiment. The cells treated with the compounds were stained with 10 μg/ml Hoechst 33342 for 30 minutes and washed twice with phosphate-buffered saline (PBS), and the amount of the cells was quantified using a plate reader (FLUOstar Omega) at wavelengths of ex/em: 355/460 nm.
FIGS. 1 to 10 show the experimental results for each example and comparative example in which human skin fibroblasts collected from newborn skin were used as senescent cells.
An additional experiment was conducted using the same method as Experimental Example 1, but with a greater variety of concentrations of the treated substances.

Row | SMILES | cell division results when the named compound replaced KU60019 (ATM kinase inhibitor) or ABT263 (Bcl-2 inhibitor) in the combinations | cell rejuvenation effect of the five-component combination with the named compound as ATM kinase inhibitor or Bcl-2 inhibitor
1 | C/C1=C\CCC2=C[C@@H](OC2=O)c2c(C)coc2C1 [linderalactone] | the results showed the same pattern | excellent cell rejuvenation effect
2 | CNC(=O)c1ccc(-c2cnc3cnc(-c4ccccc4)cn23)cc1 [AZ32] | the results showed the same pattern | excellent cell rejuvenation effect
3 | CN(C)CC[C@H](CSc1ccccc1)Nc1ccc(S(=O)(=O)NC(=O)c2ccc(N3CCN(Cc4ccccc4-c4ccc(Cl)cc4)CC3)cc2)cc1[N+](=O)[O-] [ABT737] | the results showed the same pattern | 

From patent publication US20260240860A1, “COMPOSITION FOR REJUVENATION OF SENESCENT CELLS OR DELAY OR PREVENTION OF CELLULAR SENESCENCE” (LONO JAEYAK INC., priority 2022, published 2026)
